Patent US6737383B1, “Herbicidal oxadiazolidines” (priority 1999, dated 2004)

Assays:
bedstraw = assay: Test B pre/postemergence bedstraw; type: in vivo, Galium aparine
Method in brief: (§1)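 Test chemicals in a non-phytotoxic solvent mixture with surfactant were sprayed preemergence onto planted seeds and postemergence onto plants 2 to 18 cm tall (1- to 4-leaf stage). After twelve to sixteen days in a greenhouse, injury was visually rated against untreated controls from 0 (no effect) to 10 (complete control).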

blackgrass = assay: Test B pre/postemergence blackgrass; type: in vivo, Alopecurus myosuroides
Method in brief: as §1

surinam grass = assay: Test B pre/postemergence surinam grass; type: in vivo, Brachiaria decumbens
Method in brief: as §1

corn = assay: Test B pre/postemergence corn; type: in vivo, Zea mays
Method in brief: as §1

crabgrass = assay: Test B pre/postemergence crabgrass; type: in vivo, Digitaria sanguinalis
Method in brief: as §1

giant foxtail = assay: Test B pre/postemergence giant foxtail; type: in vivo, Setaria faberii
Method in brief: as §1

rape = assay: Test B pre/postemergence rape; type: in vivo, Brassica napus
Method in brief: as §1

sugar beet = assay: Test B pre/postemergence sugar beet; type: in vivo, Beta vulgaris
Method in brief: as §1

velvetleaf = assay: Test B pre/postemergence velvetleaf; type: in vivo, Abutilon theophrasti
Method in brief: as §1

wheat = assay: Test B pre/postemergence wheat; type: in vivo, Triticum aestivum
Method in brief: as §1

wild oat = assay: Test B pre/postemergence wild oat; type: in vivo, Avena fatua
Method in brief: as §1

purple nutsedge = assay: Test B pre/postemergence purple nutsedge; type: in vivo, Cyperus rotundus
Method in brief: as §1

rice = assay: Test B flood test rice; type: in vivo, Oryza sativa
Method in brief: (§2)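 Read-out is a visual response score from 0 (no effect) to 10 (complete control), assigned by comparison with untreated controls. Treatment was applied at the 2-leaf stage, and plants stayed in the greenhouse for twelve to sixteen days before scoring.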

smallflower flatsedge = assay: Test B flood test smallflower flatsedge; type: in vivo, Cyperus difformis
Method in brief: as §2

duck salad = assay: Test B flood test duck salad; type: in vivo, Heteranthera limosa
Method in brief: as §2

bamyardgrass = assay: Test B flood test barnyardgrass; type: in vivo, Echinochloa crus-galli
Method in brief: as §2

[1] = Preemergence, Rate 62 g/ha, scale of 0 to 10 where 0 is no effect and 10 is complete control
[2] = Preemergence, Rate 250 g/ha, scale of 0 to 10 where 0 is no effect and 10 is complete control
[3] = Preemergence, Rate 500 g/ha, scale of 0 to 10 where 0 is no effect and 10 is complete control
[4] = Rate 62 g/ha, Postemergence, scale 0 to 10 (0 no effect, 10 complete control)
[5] = Rate 125 g/ha, Postemergence, scale of 0 to 10 where 0 is no effect and 10 is complete control
[6] = Rate 250 g/ha, Postemergence, scale of 0 to 10 where 0 is no effect and 10 is complete control
[7] = Rate 500 g/ha, Postemergence, scale 0 to 10, 0 no effect, 10 complete control
[8] = Rate 62 g/ha, headed Pre-emergence (flood test species), scale 0 to 10 (0 no effect, 10 complete control)
[9] = Rate 125 g/ha, Pre-emergence, flood test species, scale 0 to 10 where 0 is no effect and 10 is complete control
[10] = Rate 250 g/ha, Pre-emergence, flood-test species, scale 0 to 10, 0 is no effect, 10 is complete control
[11] = Rate 500 g/ha, Pre-emergence, flood test species, scale 0 to 10 (0 no effect, 10 complete control)

CC(C)N(C(=O)n1oc(=O)n(Cc2ccccc2-c2ccccc2)c1=O)c1ccc(F)cc1 [Compound 313]
Bedstraw plant response rating (bedstraw; [1]): 0 | Bedstraw plant response rating (bedstraw; [2]): 0 | Bedstraw plant response rating (bedstraw; [3]): 0 | Bedstraw plant response rating (bedstraw; [4]): 5 | Bedstraw plant response rating (bedstraw; [5]): 7 | Plant response rating, Bedstraw (bedstraw; [6]): 7 | Blackgrass plant response rating (blackgrass; [1]): 0 | Blackgrass plant response rating (0 to 10 scale) (blackgrass; Preemergence, Rate 125 g/ha): 0 | Blackgrass plant response rating (blackgrass; [2]): 0 | Blackgrass plant response rating (blackgrass; [3]): 0 | Blackgrass plant response rating (blackgrass; [4]): 0 | Blackgrass plant response rating (blackgrass; [5]): 0 | Plant response rating, Blackgrass (blackgrass; [6]): 0 | Blackgrass plant response rating (blackgrass; [7]): 0 | B. signalgrass plant response rating (surinam grass; [1]): 0 | B. signalgrass plant response rating (0 to 10 scale, 0 is no effect, 10 is complete control) (surinam grass; Preemergence, Rate 125 g/ha): 0 | B. signalgrass plant response rating (surinam grass; [2]): 0 | B. signalgrass plant response rating (surinam grass; [3]): 0 | B. signalgrass plant response rating (surinam grass; [4]): 0 | B. signalgrass plant response rating (surinam grass; [5]): 0 | Plant response rating, B. signalgrass (surinam grass; [6]): 0 | B. signalgrass plant response rating (surinam grass; [7]): 0 | Corn plant response rating (corn; [1]): 0 | Corn plant response rating (0 to 10 scale) (corn; Preemergence, Rate 125 g/ha): 0 | Corn plant response rating (corn; [2]): 0 | Corn plant response rating (corn; [3]): 0 | Corn plant response rating (corn; [4]): 0 | Corn plant response rating (corn; [5]): 0 | Plant response rating, Corn (corn; [6]): 0 | Corn plant response rating (corn; [7]): 0 | Crabgrass plant response rating (crabgrass; [1]): 0 | Crabgrass plant response rating (0 to 10 scale) (crabgrass; Preemergence, Rate 125 g/ha): 0 | Crabgrass plant response rating (crabgrass; [2]): 0 | Crabgrass plant response rating (crabgrass; [3]): 0 | Crabgrass plant response rating (crabgrass; [4]): 0 | Crabgrass plant response rating (crabgrass; [5]): 0 | Plant response rating, Crabgrass (crabgrass; [6]): 0 | Giant foxtail plant response rating (giant foxtail; [1]): 0 | Giant foxtail plant response rating (0 to 10 scale) (giant foxtail; Preemergence, Rate 125 g/ha): 0 | Giant foxtail plant response rating (giant foxtail; [2]): 0 | Giant foxtail plant response rating (giant foxtail; [3]): 0 | Giant foxtail plant response rating (giant foxtail; [4]): 0 | Giant foxtail plant response rating (giant foxtail; [5]): 0 | Plant response rating, Giant foxtail (giant foxtail; [6]): 0 | Rape plant response rating (rape; [1]): 0 | Rape plant response rating (0 to 10 scale) (rape; Preemergence, Rate 125 g/ha): 0 | Rape plant response rating (rape; [2]): 0 | Rape plant response rating (rape; [3]): 0 | Rape plant response rating (rape; [4]): 0 | Rape plant response rating (rape; [5]): 0 | Plant response rating, Rape (rape; [6]): 0 | Sugarbeets plant response rating (sugar beet; [1]): 0 | Sugarbeets plant response rating (0 to 10 scale) (sugar beet; Preemergence, Rate 125 g/ha): 0 | Sugarbeets plant response rating (sugar beet; [2]): 0 | Sugarbeets plant response rating (sugar beet; [3]): 0 | Sugarbeets plant response rating (sugar beet; [4]): 0 | Sugarbeets plant response rating (sugar beet; [5]): 0 | Plant response rating, Sugarbeets (sugar beet; [6]): 0 | Velvetleaf plant response rating (velvetleaf; [1]): 0 | Velvetleaf plant response rating (0 to 10 scale) (velvetleaf; Preemergence, Rate 125 g/ha): 0 | Velvetleaf plant response rating (velvetleaf; [2]): 0 | Velvetleaf plant response rating (velvetleaf; [3]): 0 | Velvetleaf plant response rating (velvetleaf; [4]): 0 | Velvetleaf plant response rating (velvetleaf; [5]): 0 | Plant response rating, Velvetleaf (velvetleaf; [6]): 0 | Wheat plant response rating (wheat; [1]): 0 | Wheat plant response rating (0 to 10 scale) (wheat; Preemergence, Rate 125 g/ha): 0 | Wheat plant response rating (wheat; [2]): 0 | Wheat plant response rating (wheat; [3]): 0 | Wheat plant response rating (wheat; [4]): 0 | Wheat plant response rating (wheat; [5]): 0 | Plant response rating, Wheat (wheat; [6]): 0 | Wild oats plant response rating (wild oat; [1]): 0 | Wild oats plant response rating (0 to 10 scale) (wild oat; Preemergence, Rate 125 g/ha): 0 | Wild oats plant response rating (wild oat; [2]): 0 | Wild oats plant response rating (wild oat; [3]): 0 | Wild oats plant response rating (wild oat; [4]): 0 | Wild oats plant response rating (wild oat; [5]): 0 | Plant response rating, Wild oats (wild oat; [6]): 0 | Nutsedge plant response rating (purple nutsedge; [1]): 0 | Nutsedge plant response rating (0 to 10 scale) (purple nutsedge; Preemergence, Rate 125 g/ha): 0 | Nutsedge plant response rating (purple nutsedge; [2]): 0 | Nutsedge plant response rating (purple nutsedge; [3]): 0 | Nutsedge plant response rating (purple nutsedge; [4]): 0 | Nutsedge plant response rating (purple nutsedge; [5]): 0 | Plant response rating, Nutsedge (purple nutsedge; [6]): 0 | Rice plant response rating (rice; [8]): 0 | Rice plant response rating (rice; [9]): 0 | Rice plant response rating (rice; [10]): 0 | Rice plant response rating (rice; [11]): 0 | S. Flatsedge plant response rating (smallflower flatsedge; [8]): 0 | S. Flatsedge plant response rating (smallflower flatsedge; [9]): 0 | S. Flatsedge plant response rating (smallflower flatsedge; [10]): 0 | S. Flatsedge plant response rating (smallflower flatsedge; [11]): 0 | Ducksalad plant response rating (duck salad; [8]): 0 | Ducksalad plant response rating (duck salad; [9]): 0 | Ducksalad plant response rating (duck salad; [10]): 0 | Ducksalad plant response rating (duck salad; [11]): 0 | Barnyardgrass plant response rating (bamyardgrass; [8]): 0 | Barnyardgrass plant response rating (bamyardgrass; [9]): 0 | Barnyardgrass plant response rating (bamyardgrass; [10]): 0 | Barnyardgrass plant response rating (bamyardgrass; [11]): 0
